Source: patent US20120053180A1, “CYCLOHEXANE ANALOGUES AS GPR119 AGONISTS” (CHEMIZON, A DIVISION OF OPTOMAGIC CO., LTD., priority 2010, published 2012)

Target: T1, GPR119 (Homo sapiens, UniProt Q8TDV5)
T1 sequence (Q8TDV5 1-335): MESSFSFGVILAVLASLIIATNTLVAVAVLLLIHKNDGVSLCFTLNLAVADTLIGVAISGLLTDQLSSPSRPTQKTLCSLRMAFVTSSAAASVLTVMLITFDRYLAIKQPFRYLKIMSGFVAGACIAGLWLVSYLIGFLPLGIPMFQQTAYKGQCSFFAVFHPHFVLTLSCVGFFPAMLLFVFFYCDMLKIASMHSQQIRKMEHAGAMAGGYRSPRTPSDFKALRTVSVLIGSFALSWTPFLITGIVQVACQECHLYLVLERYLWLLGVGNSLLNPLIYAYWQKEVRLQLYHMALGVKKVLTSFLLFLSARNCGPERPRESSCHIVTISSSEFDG
Assay: cAMP assays of selected examples (stimulation of cAMP)
Type: cell-based
Excerpt: Camp Assays of Selected Examples

Compound	EC50 ('>200 nM')	EC50 (<200 nM)
CCc1cnc(OC2CCC(c3nc(CNc4ccc(S(C)(=O)=O)cc4)cs3)CC2)nc1 (centres unmarked)	> 200 nM	
CS(=O)(=O)c1ccc(OCc2cn(C3CCC(Oc4ncccn4)CC3)nn2)cc1 (centres unmarked)	> 200 nM	
CCc1cnc(OC2CCC(c3nc(COc4ccc(-n5cnnn5)cc4)cs3)CC2)nc1 (centres unmarked)		< 200 nM
CCc1cnc(OC2CCC(Oc3c(F)cc(-c4ccc(S(C)(=O)=O)cc4)cc3F)CC2)nc1 (centres unmarked)		< 200 nM
CCc1cnc(OC2CCC(c3nc(COc4ccc(S(C)(=O)=O)cc4F)cs3)CC2)nc1 (centres unmarked)		< 200 nM
CCc1cnc(OC2CCC(c3nc(COc4ccc(S(C)(=O)=O)cc4)cs3)CC2)nc1 (centres unmarked)		< 200 nM

Further lines, results first:

EC50 ('>200 nM')	EC50 (<200 nM)	Compound
> 200 nM		CCc1cnc(OC2CCC(n3cc(COc4ccc(S(C)(=O)=O)cc4)nn3)CC2)nc1 (centres unmarked)
> 200 nM		Cc1cnc(OC2CCC(n3cc(COc4ccc(S(C)(=O)=O)cc4)nn3)CC2)nc1 (centres unmarked)
